# Entries after “also recorded” stand apart in the source; their conditions may differ.
# What was measured:
# Mc3r of channel catfish = details: ref [12]; cited from earlier work
# Mc3r of spiny dogfish = details: ref [3]; cited from earlier work
# omMc3r [1] = test: MAPK/ERK (ERK1/2) signaling, SRE luciferase reporter (pGL4.33) assay; format: cell-based, Onychostoma macrolepis
# Experimental: (§1) In order to test whether omMc3r can be activated by ligands in vitro, we sub-cloned the coding region of omMc3r into pcDNA3.1 (+) vector (Invitrogen, Carlsbad, CA, USA) for subsequent transfection of cells. The constructed vector was further verified by sequencing before use.
# (§2) Human embryonic kidney (HEK293T) cells were cultured in Dulbecco modified Eagle’s medium (DMEM, Invitrogen, Carlsbad, CA, USA) supplemented with 10% fetal bovine serum (FBS, Biological Industries, Kibbutz Beit Haemek, Israel) and placed in a humid environment containing 5% CO2 at 37 °C. Cells were passaged every 2 days.
# (§3) This study employed the luciferase reporter system to examine whether the four ligands can activate downstream signals through omMc3r. The luciferase reporter vector pGL4.29 and pGL4.33 of Promega (Madison, WI, USA) contain cAMP respose element (CRE) and serum response element (SRE) in their promoter regions, which can monitor the activation of cAMP and MAPK/ERK signaling pathways, respectively. The brief operating procedure was as follows: the HEK293T cells were passaged to a 6-well plate 24 h before transfection. […] An Infinite F200 microplate reader (Tecan, Männedorf, Switzerland) was used to measure the luciferase activities. […]
# omMc3r [2] = test: cAMP signaling, CRE luciferase reporter (pGL4.29) assay; format: cell-based, Onychostoma macrolepis; details: pGL4.29 (CRE) luciferase reporter
# Experimental: as §1, §2, §3
# Human MC3R = details: ref [3]; cited from earlier work
substance,measurement,setting,value
adrenocorticotropin [ACTH],ligand affinity of channel catfish Mc3r (in words),Mc3r of channel catfish,highest affinity
same,ligand affinity of spiny dogfish Mc3r (in words),Mc3r of spiny dogfish,highest affinity
β-melanocyte-stimulating hormone [β-MSH],EC50,"omMc3r [1]; HEK293T cells co-transfected with omMc3r plasmid and pGL4.33 (SRE) luciferase reporter, ligand 6 h in serum-free DMEM, fold change vs serum-free DMEM, nonlinear regression, mean ± SEM (n = 3, figure legend: mean (SD) of three independent experiments), read-out: EC50, ERK1/2 Response",4850 ± 10.7 nM
same,activation of MAPK/ERK signaling through omMc3r (in words),"omMc3r [1]; HEK293T cells, pGL4.33 (SRE) luciferase reporter, ligand 6 h",can all activate the cAMP and MAPK/ERK signaling pathway; also recorded: can activate cAMP and MAPK/ERK signaling pathways in a dose-dependent manner; also recorded: could potently activate the Gαs-cAMP and MAPK/ERK signaling pathway through omMc3r; also recorded: could activate cAMP and the MAPK/ERK signaling through omMc3r with different degrees of potency
same,EC50,"omMc3r [2]; HEK293T cells transiently transfected with omMc3r plasmid, ligand 6 h in serum-free DMEM, fold change vs serum-free DMEM, nonlinear regression, mean ± SEM (n = 3, figure legend: mean (SD) of three independent experiments), read-out: EC50, cAMP Response",270 ± 4.95 nM
same,activation of cAMP signaling through omMc3r (in words),"omMc3r [2]; HEK293T cells, ligand 6 h",can all activate the cAMP and MAPK/ERK signaling pathway; also recorded: can activate cAMP and MAPK/ERK signaling pathways in a dose-dependent manner; also recorded: could potently activate the Gαs-cAMP and MAPK/ERK signaling pathway through omMc3r; also recorded: could activate cAMP and the MAPK/ERK signaling through omMc3r with different degrees of potency
γ-melanocyte-stimulating hormone [γ-MSH],ligand preference of human MC3R (in words),Human MC3R,unique preference

# Source: article PMC8749556, “Functional Characterization of Melanocortin-3 Receptor in a Hibernating Cavefish Onychostoma macrolepis” (Animals : an Open Access Journal from MDPI, 2021)
